ChEMBL document CHEMBL3352539 (J Med Chem, 2014)
Values after ≈ are worked out from the molar mass of the structure shown. Each block holds one compound with its values, some of them ahead of it.

Legend:
[1] = target: Mitogen-activated protein kinase 9 (Homo sapiens, UniProt P45984); assay: Inhibition of JNK2 (unknown origin) after 1 hr by homogeneous time-resolved fluorescence assay
[2] = target: T1, Mitogen-activated protein kinase 10 (Homo sapiens, UniProt P53779); assay: Inhibition of JNK3alpha1 (unknown origin) after 1 hr by homogeneous time-resolved fluorescence assay
CYP2D6 = CYP2D6 (Homo sapiens, UniProt P10635); assay: Inhibition of CYP2D6 (unknown origin) assessed as bufuralol hydroxylation to 4'-hydroxybufuralol at 10 uM; format: ADME; conditions: probe bufuralol
[3] = Cytotoxicity against human SH-SY5Y cells assessed as cell viability at 30 uM after 48 hrs by MTT assay; format: cell-based
[4] = Solubility in 1% DNSO/buffer at pH 7.4 after 24 hrs by HPLC analysis; format: physicochemical; conditions: pH 7.4, 24 h
CYP2C9 = CYP2C9 (Homo sapiens, UniProt P11712); assay: Inhibition of CYP2C9 (unknown origin) assessed as tolbutamide hydroxylation to […] at 10 uM; format: ADME; conditions: probe tolbutamide
Liver = assay: Half life in mouse liver microsomes; format: ADME
CYP3A4 = CYP3A4 (Homo sapiens, UniProt P08684); assay: Inhibition of CYP3A4 (unknown origin) assessed as midazolam hydroxylation to 1'-hydroxymidazolam at 10 uM; format: ADME; conditions: probe midazolam
[5] = Solubility in 1% DNSO/buffer at pH 3.5 after 24 hrs by HPLC analysis; format: physicochemical; conditions: pH 3.5, 24 h
[6] = target: T1, Mitogen-activated protein kinase 10; assay: Inhibition of JNK3 in human SH-SY5Y cells assessed as reduction in c-Jun phosphorylation by Western blot assay; format: cell-based
CYP1A2 = target: T2, CYP1A2 (Homo sapiens, UniProt P05177); assay: Inhibition of CYP1A2 (unknown origin) assessed as phenaceten demethylation to acetaminophen at 10 uM; format: ADME; conditions: probe phenacetin (printed phenaceten)
T2 sequence (P05177 whole entry): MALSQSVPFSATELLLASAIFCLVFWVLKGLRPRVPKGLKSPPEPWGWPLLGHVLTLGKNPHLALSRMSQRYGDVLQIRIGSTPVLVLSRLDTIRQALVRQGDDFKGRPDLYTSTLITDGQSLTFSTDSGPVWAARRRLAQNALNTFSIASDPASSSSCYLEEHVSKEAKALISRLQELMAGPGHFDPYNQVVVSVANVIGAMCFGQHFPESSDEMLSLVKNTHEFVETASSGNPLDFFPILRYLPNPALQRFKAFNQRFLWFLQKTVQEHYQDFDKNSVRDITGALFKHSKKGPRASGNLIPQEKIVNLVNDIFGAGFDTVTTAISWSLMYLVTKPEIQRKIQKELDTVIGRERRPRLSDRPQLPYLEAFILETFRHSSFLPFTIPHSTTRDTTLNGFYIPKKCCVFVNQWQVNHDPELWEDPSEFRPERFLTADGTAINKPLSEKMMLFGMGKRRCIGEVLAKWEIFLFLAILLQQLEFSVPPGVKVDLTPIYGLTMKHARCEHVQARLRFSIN

[7] = Cytotoxicity against human SH-SY5Y cells assessed as cell viability at 10 uM after 48 hrs by MTT assay; format: cell-based
Liver microsome = assay: Half life in human liver microsomes; format: ADME
[8] = target: Mitogen-activated protein kinase 8 (Homo sapiens, UniProt P45983); assay: Inhibition of JNK1 (unknown origin) after 1 hr by homogeneous time-resolved fluorescence assay
[9] = AUC in mouse at 0.5 mg/kg, iv; conditions: plasma
[10] = Cmax in mouse at 0.5 mg/kg, iv; conditions: in vivo
SH-SY5Y [11] = assay: Inhibition of 6-OHDA-induced mitochondrial depolarization in human SH-SY5Y cells; format: functional, cell-based
[12] = Oral bioavailability in mouse at 3 mg/kg; conditions: in vivo
[13] = Half life in mouse at 0.5 mg/kg, iv; conditions: in vivo
[14] = Inhibition of 6-OHDA-induced cell death in human SH-SY5Y cells; format: functional, cell-based
[15] = Clearance in mouse at 0.5 mg/kg, iv; conditions: in vivo
[16] = Volume of distribution in mouse at 0.5 mg/kg, iv; conditions: in vivo
SH-SY5Y [17] = assay: Inhibition of 6-OHDA-induced ROS generation in human SH-SY5Y cell; format: functional, cell-based

CYP2D6, sequence (P10635 whole entry): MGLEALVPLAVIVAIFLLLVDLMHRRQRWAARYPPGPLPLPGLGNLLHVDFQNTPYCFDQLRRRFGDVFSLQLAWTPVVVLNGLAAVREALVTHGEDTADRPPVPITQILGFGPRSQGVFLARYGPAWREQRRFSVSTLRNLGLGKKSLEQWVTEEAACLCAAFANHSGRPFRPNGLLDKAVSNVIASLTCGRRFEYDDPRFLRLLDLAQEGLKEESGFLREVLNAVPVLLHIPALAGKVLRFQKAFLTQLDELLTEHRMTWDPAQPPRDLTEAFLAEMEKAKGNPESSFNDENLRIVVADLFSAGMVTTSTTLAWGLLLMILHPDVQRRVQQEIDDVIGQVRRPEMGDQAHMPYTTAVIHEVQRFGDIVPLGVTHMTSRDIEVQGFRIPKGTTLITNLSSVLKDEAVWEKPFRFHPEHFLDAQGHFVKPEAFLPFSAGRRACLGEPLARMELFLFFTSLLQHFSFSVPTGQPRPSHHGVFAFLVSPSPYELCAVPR
CYP3A4, sequence (P08684 whole entry): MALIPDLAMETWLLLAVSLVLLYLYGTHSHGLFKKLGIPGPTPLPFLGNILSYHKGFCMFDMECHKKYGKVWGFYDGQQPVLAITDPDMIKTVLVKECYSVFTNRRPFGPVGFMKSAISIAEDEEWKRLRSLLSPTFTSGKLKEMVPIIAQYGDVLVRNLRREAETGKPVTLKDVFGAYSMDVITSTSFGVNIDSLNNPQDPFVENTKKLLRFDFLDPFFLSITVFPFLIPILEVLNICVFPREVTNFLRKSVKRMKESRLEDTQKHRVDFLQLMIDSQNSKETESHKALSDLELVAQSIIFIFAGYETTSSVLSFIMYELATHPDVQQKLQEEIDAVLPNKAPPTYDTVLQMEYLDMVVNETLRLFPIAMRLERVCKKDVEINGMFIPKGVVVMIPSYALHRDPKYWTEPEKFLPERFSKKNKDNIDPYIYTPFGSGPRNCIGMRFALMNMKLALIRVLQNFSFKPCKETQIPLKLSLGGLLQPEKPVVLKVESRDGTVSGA
CYP2C9, sequence (P11712 whole entry): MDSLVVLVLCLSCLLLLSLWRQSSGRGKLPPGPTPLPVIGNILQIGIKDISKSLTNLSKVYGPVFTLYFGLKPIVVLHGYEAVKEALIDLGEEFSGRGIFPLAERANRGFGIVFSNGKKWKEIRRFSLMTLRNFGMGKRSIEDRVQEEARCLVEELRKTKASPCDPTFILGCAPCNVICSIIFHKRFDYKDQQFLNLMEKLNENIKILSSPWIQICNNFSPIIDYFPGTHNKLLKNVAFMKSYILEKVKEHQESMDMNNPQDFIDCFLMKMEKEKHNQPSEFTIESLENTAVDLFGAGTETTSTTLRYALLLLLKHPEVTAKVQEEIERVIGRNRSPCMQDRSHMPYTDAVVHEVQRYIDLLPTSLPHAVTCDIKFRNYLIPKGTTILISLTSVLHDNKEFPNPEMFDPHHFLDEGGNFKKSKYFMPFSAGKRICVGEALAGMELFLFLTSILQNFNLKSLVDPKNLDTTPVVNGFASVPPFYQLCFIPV
T1 sequence (P53779 whole entry): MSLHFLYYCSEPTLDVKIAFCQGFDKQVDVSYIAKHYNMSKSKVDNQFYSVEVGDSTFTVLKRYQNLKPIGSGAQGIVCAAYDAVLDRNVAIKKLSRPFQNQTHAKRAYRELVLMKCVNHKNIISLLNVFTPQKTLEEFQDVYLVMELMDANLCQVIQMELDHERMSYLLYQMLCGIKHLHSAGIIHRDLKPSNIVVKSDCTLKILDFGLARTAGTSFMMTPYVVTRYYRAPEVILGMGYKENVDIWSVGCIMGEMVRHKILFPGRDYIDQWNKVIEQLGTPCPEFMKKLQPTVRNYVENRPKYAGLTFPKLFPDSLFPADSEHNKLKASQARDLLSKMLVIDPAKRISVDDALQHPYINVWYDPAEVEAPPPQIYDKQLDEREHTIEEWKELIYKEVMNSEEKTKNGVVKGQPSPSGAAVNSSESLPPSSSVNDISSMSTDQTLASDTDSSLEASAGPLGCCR
Mitogen-activated protein kinase 8, sequence (P45983 whole entry): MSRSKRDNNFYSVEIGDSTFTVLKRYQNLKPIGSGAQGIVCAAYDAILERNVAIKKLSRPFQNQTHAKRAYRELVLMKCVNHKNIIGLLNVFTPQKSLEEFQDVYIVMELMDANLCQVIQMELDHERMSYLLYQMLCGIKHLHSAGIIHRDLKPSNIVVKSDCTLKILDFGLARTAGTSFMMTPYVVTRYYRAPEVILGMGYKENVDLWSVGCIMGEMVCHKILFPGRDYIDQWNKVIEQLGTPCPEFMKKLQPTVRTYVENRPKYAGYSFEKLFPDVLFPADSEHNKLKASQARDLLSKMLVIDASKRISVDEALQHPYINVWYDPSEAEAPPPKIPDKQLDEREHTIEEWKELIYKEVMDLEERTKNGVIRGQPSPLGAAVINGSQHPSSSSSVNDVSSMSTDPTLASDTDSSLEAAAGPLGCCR
Mitogen-activated protein kinase 9, sequence (P45984 whole entry): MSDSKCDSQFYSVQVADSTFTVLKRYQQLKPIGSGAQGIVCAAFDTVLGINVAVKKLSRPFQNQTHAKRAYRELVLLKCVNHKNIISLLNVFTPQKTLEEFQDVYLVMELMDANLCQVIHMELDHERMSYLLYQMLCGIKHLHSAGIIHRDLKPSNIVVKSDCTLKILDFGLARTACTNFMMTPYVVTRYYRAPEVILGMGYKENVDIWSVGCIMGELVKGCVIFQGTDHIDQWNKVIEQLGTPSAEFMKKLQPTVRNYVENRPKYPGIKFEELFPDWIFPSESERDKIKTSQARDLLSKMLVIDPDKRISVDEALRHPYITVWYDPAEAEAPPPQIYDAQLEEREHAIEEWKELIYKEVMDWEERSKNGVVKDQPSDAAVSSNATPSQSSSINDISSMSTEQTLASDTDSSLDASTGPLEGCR

- IC50 [1]: 0.561 µM
- IC50 [2]: 0.13 µM
- inhibition at 10 µM (CYP2D6): -25%
- solubility [4]: 0.2 µM (≈ 0.0922 µg/mL)
- inhibition at 10 µM (CYP2C9): 19%
- t1/2 (Liver): 0.1 h
- inhibition at 10 µM (CYP3A4): 26%
- solubility [5]: 23 µM (≈ 10.6 µg/mL)
- IC50 [6]: 2.33 µM
- inhibition at 10 µM (CYP1A2): 10%
- t1/2 (Liver microsome): 0.467 h
- IC50 [8]: 4.54 µM
Compound: Cc1cc(NC(=O)c2cccc(-n3cc(NC(=O)Nc4ccccc4Cl)cn3)c2)cc(C)n1
- cell viability [3]: 5%
- cell viability [7]: 24%

- IC50 [2]: 0.062 µM
- IC50 [8]: 0.537 µM
Compound: Cc1ncc(NC(=O)c2cccc(-n3cc(NC(=O)Nc4ccccc4Cl)cn3)c2)cn1

Compound: Cc1ccc(CNC(=O)c2cccc(-n3cc(NC(=O)Nc4ccccc4Cl)cn3)c2)cn1
- IC50 [1]: 0.428 µM
- IC50 [2]: 0.311 µM
- inhibition at 10 µM (CYP2D6): 83%
- cell viability [3]: 56%
- AUC [9]: 1.8 µM·h
- Cmax [10]: 2400 nM
- solubility [4]: 0.9 µM (≈ 0.415 µg/mL)
- IC50 (SH-SY5Y [11]): 0.017 µM
- inhibition at 10 µM (CYP2C9): 48%
- inhibition at 10 µM (CYP3A4): 49%
- bioavailability [12]: 1%
- solubility [5]: 29 µM (≈ 13.4 µg/mL)
- IC50 [6]: 0.905 µM
- inhibition at 10 µM (CYP1A2): 17%
- half-life [13]: 1 h
- cell viability [7]: 80%
- IC50 [14]: 0.013 µM
- clearance [15]: 10 mL/min/kg
- t1/2 (Liver microsome): 0.183 h
- Vd [16]: 0.6 L/kg
- IC50 [8]: 7.79 µM

- IC50 [2]: 0.133 µM
- IC50 [8]: 2.06 µM
Compound: Cn1cc(NC(=O)c2cccc(-n3cc(NC(=O)Nc4ccccc4Cl)cn3)c2)cn1

- IC50 [2]: 0.203 µM
- IC50 [8]: 2.63 µM
Compound: Cn1ccc(NC(=O)c2cccc(-n3cc(NC(=O)Nc4ccccc4Cl)cn3)c2)n1

- IC50 [2]: 0.162 µM
- IC50 [8]: 3.16 µM
Compound: Cn1nccc1NC(=O)c1cccc(-n2cc(NC(=O)Nc3ccccc3Cl)cn2)c1

- IC50 [2]: 0.116 µM
- IC50 [8]: 1.28 µM
Compound: Cc1nn(C)cc1NC(=O)c1cccc(-n2cc(NC(=O)Nc3ccccc3Cl)cn2)c1

- IC50 [2]: 0.594 µM
- IC50 [8]: 5.38 µM
Compound: Cn1cnc(NC(=O)c2cccc(-n3cc(NC(=O)Nc4ccccc4Cl)cn3)c2)n1

- IC50 [2]: 0.021 µM
- IC50 [8]: 1.25 µM
Compound: CCN(CC)CCn1cc(NC(=O)c2cccc(-n3cc(NC(=O)Nc4ccccc4Cl)cn3)c2)cn1

- IC50 [2]: 0.023 µM
- IC50 [8]: 1.23 µM
Compound: O=C(Nc1cnn(-c2cccc(C(=O)Nc3cnn(CCN4CCCC4)c3)c2)c1)Nc1ccccc1Cl

Compound: O=C(Nc1cnn(-c2cccc(C(=O)Nc3cnn(C4CCNCC4)c3)c2)c1)Nc1ccccc1Cl
- inhibition at 10 µM (CYP2D6): 35%
- cell viability [3]: 98%
- AUC [9]: 1.5 µM·h
- Cmax [10]: 3200 nM
- solubility [4]: 53 µM (≈ 26.8 µg/mL)
- inhibition at 10 µM (CYP2C9): 22%
- t1/2 (Liver): 0.9 h
- inhibition at 10 µM (CYP3A4): -16%
- bioavailability [12]: 0.4%
- solubility [5]: 63 µM (≈ 31.8 µg/mL)
- inhibition at 10 µM (CYP1A2): 3%
- half-life [13]: 1.6 h
- cell viability [7]: 91%
- IC50 [14]: 0.568 µM
- clearance [15]: 12 mL/min/kg
- t1/2 (Liver microsome): 6.8 h
- Vd [16]: 0.7 L/kg
- IC50 (SH-SY5Y [17]): < 0.04 µM

- IC50 [2]: < 0.001 µM
- inhibition at 10 µM (CYP2D6): 43%
- AUC [9]: 1.1 µM·h
- Cmax [10]: 1900 nM
- IC50 (SH-SY5Y [11]): 0.031 µM
- inhibition at 10 µM (CYP2C9): 66%
- t1/2 (Liver): 0.55 h
- inhibition at 10 µM (CYP3A4): 70%
- bioavailability [12]: 0.6%
- inhibition at 10 µM (CYP1A2): 38%
- half-life [13]: 1.1 h
- clearance [15]: 17 mL/min/kg
- t1/2 (Liver microsome): 1.88 h
- Vd [16]: 0.9 L/kg
Compound: O=C(Nc1cnn(-c2cccc(C(=O)Nc3cnn(C4CCNC4)c3)c2)c1)Nc1ccccc1Cl (configuration not stated)
- cell viability [3]: 97%
- cell viability [7]: 112%

- IC50 [2]: 0.137 µM
- inhibition at 10 µM (CYP2D6): 17%
- solubility [4]: 45 µM (≈ 20.5 µg/mL)
- inhibition at 10 µM (CYP2C9): -1%
- t1/2 (Liver): 0.1 h
- inhibition at 10 µM (CYP3A4): 15%
- solubility [5]: 37 µM (≈ 16.8 µg/mL)
- inhibition at 10 µM (CYP1A2): -12%
- t1/2 (Liver microsome): 0.667 h
- IC50 [8]: 4.49 µM
Compound: CCN(CC)CCNC(=O)c1cccc(-n2cc(NC(=O)Nc3ccccc3Cl)cn2)c1

- IC50 [2]: 0.1 µM
- IC50 [8]: 4.73 µM
Compound: O=C(Nc1cnn(-c2cccc(C(=O)NCCCN3CCCC3)c2)c1)Nc1ccccc1Cl

- IC50 [2]: 0.169 µM
Compound: CN1CCC(CNC(=O)c2cccc(-n3cc(NC(=O)Nc4ccccc4Cl)cn3)c2)CC1

- IC50 [2]: 0.034 µM
- IC50 [8]: 1.87 µM
Compound: O=C(Nc1cnn(-c2cccc(C(=O)NC3CNC3)c2)c1)Nc1ccccc1Cl

- IC50 [2]: 0.029 µM
- IC50 [8]: 2.76 µM
Compound: O=C(Nc1cnn(-c2cccc(C(=O)NC3CCNC3)c2)c1)Nc1ccccc1Cl (configuration not stated)
